Reference: patent US5629322A, “Cyclic amidine analogs as inhibitors of nitric oxide synthase” (priority 1995, dated 1997)
Where a name gives a salt, the structure may show the parent alone. Read-outs that look alike come from different tables or passages of the source. Each block holds one molecule with its values, some of them ahead of it.

Assays:
NO synthase = assay: Assay Protocol for NOS activity: % inhibition at 50 uM (formation of L-[3H]citrulline from L-[3H]arginine); assay type: biochemical
Procedure: (§1) Assay Protocol for NOS activity
(§2) NOS activity is measured as the formation of L-[2,3,4,5-^3 H]Citrullinefrom L-[2,3,4,5-^3 H]Arginine. The incubation buffer (100 μL) contained; 100 mM TES, pH 7.5, 5 μM FAD, 5 μM FMN, 10 μM BH4, 0.5 mM NADPH, 0.5 mM DTT, 0.5 mg/mL BSA, 2 mM CaCl2, 10 μg/mL calmodulin (bovine), 1 μM L-Arg, 0.2 μCi L-[2,3,4,5-^3 H]Arg, and the inhibitor in aqueous DMSO (max. 5%). The reaction is initiated by addition of enzyme. Incubations are performed at room temperature for 30 minutes and stopped by the addition of an equal volume of quenching buffer consisting of 200 mM sodium citrate, pH 2.2, 0.02% sodium azide. Reaction products are separated by passing through a cation exchange resin and quantitated as cpm by scintillation counting.

ecNOS = ecNOS (Homo sapiens, UniProt P29474); assay: NOS activity assay, ecNOS (L-[3H]citrulline formation); assay type: biochemical
Procedure: as §1, §2

ncNOS = ncNOS (Homo sapiens, UniProt P29475); assay: biochemical
Sequence of ncNOS (P29475 whole entry): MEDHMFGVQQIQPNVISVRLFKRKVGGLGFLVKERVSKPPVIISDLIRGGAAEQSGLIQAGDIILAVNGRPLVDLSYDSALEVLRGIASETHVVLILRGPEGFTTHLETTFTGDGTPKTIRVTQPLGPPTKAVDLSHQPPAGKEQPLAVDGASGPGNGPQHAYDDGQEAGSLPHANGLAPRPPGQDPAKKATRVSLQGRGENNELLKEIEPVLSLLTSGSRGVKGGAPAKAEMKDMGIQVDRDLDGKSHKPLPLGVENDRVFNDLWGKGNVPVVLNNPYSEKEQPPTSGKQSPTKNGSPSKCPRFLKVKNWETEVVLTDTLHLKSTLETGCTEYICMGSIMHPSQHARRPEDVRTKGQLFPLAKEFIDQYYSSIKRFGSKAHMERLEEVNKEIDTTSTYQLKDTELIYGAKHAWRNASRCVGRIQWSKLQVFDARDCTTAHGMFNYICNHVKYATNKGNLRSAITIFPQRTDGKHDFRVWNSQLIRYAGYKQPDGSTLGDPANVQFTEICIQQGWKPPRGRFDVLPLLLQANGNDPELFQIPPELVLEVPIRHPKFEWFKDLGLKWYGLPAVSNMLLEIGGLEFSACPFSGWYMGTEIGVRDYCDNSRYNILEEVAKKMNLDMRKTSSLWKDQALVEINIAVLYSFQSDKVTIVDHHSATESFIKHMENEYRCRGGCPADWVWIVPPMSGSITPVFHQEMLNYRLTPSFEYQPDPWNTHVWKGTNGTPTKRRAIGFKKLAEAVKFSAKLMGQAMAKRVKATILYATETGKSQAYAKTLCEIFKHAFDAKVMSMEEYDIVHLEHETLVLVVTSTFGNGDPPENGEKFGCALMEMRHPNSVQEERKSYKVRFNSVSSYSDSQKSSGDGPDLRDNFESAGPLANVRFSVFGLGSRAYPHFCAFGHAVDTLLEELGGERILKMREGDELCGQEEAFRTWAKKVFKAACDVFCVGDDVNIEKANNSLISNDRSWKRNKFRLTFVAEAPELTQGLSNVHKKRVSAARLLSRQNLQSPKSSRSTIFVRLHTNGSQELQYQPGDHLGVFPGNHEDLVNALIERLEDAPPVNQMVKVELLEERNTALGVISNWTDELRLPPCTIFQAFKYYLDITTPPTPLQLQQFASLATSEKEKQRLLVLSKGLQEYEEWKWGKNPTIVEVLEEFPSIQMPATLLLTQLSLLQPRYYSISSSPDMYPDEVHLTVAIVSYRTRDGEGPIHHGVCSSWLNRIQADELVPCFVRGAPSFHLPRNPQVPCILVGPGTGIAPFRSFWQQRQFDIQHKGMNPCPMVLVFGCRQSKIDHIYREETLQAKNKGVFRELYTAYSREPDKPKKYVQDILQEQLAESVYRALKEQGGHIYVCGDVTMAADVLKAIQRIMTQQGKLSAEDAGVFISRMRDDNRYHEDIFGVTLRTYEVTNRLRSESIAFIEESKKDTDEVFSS

iNOS = iNOS (Homo sapiens, UniProt P35228); assay: NOS activity assay, iNOS (L-[3H]citrulline formation); assay type: biochemical
Procedure: as §1, §2

Compound: CCNC1=NCCCCC1 [Table 2: CH2 CH3]
% inhibition (NO synthase; Table 2): 55%

Compound: N=C1CCCCCCN1
% inhibition (NO synthase; Table 3): 100%

Compound: N=C1CCCN1 [Table 1: H, H, H]
% inhibition (NO synthase; Table 1): 90%

Compound: N=C1CCCCCN1
% inhibition (NO synthase; Table 3): 96%

Compound: C1CCN=C(NC2CCCCC2)CC1 [Table 2: cyclohexyl]
% inhibition (NO synthase; Table 2): 8%

IC50 (ecNOS; Table 4, read-out: IC50 ecNOS): > 50 µM | IC50 (ncNOS; Table 4, read-out: IC50 ncNOS): ≤ 50 µM | IC50 (iNOS; Table 4, read-out: IC50 iNOS): ≤ 50 µM
Compound: CCCC1CC(N)=NC1CC (centres unmarked) [Table 4: H, n-C3H7, C2H5, H, H, 2-Imino-5-ethyl-4-propylpyrrolidine hydrochloride]

Compound: CNC1=NCCCCC1 [Table 2: CH3]
% inhibition (NO synthase; Table 2): 3%

IC50 (ecNOS; Table 4, read-out: IC50 ecNOS): ≤ 50 µM | IC50 (ncNOS; Table 4, read-out: IC50 ncNOS): ≤ 10 µM | IC50 (iNOS; Table 4, read-out: IC50 iNOS): > 50 µM
Compound: N=C1CC[C@@H]2CCCN12 [Table 4: H, H, (CH2)3, H, 5-(S)-2-Imino-1-aza-bicyclo(3.3.0)octane]

Compound: N=C1CCCCCCCN1
% inhibition (NO synthase; Table 3): 100%

IC50 (ecNOS; Table 5, read-out: IC50 ecNOS): ≤ 50 µM | IC50 (ncNOS; Table 5, read-out: IC50 ncNOS): ≤ 10 µM | IC50 (iNOS; Table 5, read-out: IC50 iNOS): ≤ 10 µM
Compound: CC1CC(=N)NCC1C(=O)O (mixture of isomers) [Table 5: CH, H, CH3, CO2H, H, H, H, cis/trans-2-Imino-4-methyl-piperidine-5-carboxylic acid, acetic acid salt]

Compound: NC1=NCCC1 [Table 4: H, H, H, H, H, 1-Aza-2-imino-cyclopentane hydrochloride]
IC50 (ecNOS): ≤ 10 µM | IC50 (ncNOS): ≤ 10 µM | IC50 (iNOS; Table 4, read-out: IC50 iNOS): ≤ 10 µM

IC50 (ecNOS; Table 5, read-out: IC50 ecNOS): > 50 µM | IC50 (ncNOS; Table 5, read-out: IC50 ncNOS): ≤ 10 µM | IC50 (iNOS; Table 5, read-out: IC50 iNOS): ≤ 10 µM
Compound: CC1C(=N)NCC2CCCC21 (stereo not drawn) [Table 5: CH, CH3, (CH2)3, H, H, H, 4-Imino-5-cis-methyl-3-azabicyclo[4.3.0]nonane, hydrochloride]

Compound: c1ccc(CNC2=NCCCCC2)cc1 [Table 2: CH2 -phenyl]
% inhibition (NO synthase; Table 2): 3%

IC50 (ecNOS; Table 5, read-out: IC50 ecNOS): > 50 µM | IC50 (ncNOS; Table 5, read-out: IC50 ncNOS): > 50 µM | IC50 (iNOS; Table 5, read-out: IC50 iNOS): ≤ 50 µM
Compound: CC(=O)NC1CNC(=N)CC1C (mixture of isomers) [Table 5: CH, H, CH3, NHAc, H, H, H, cis/trans-5-Acetamido-2-imino-4-methyl-piperidine, acetic acid salt]

Compound: CC1CCC(=N)N1 (centres unmarked) [Table 1: CH3, H, H]
% inhibition (NO synthase; Table 1): 98%

IC50 (ecNOS; Table 4, read-out: IC50 ecNOS): ≤ 50 µM | IC50 (ncNOS; Table 4, read-out: IC50 ncNOS): ≤ 10 µM | IC50 (iNOS; Table 4, read-out: IC50 iNOS): ≤ 10 µM
Compound: CC1(C)CCC(=N)N1 [Table 4: H, H, (CH3)2, H, H, 2-Imino-5,5-dimethylpyrrolidine hydrochloride]

Compound: N=C1CCCN1 [drawing 15]
% inhibition (NO synthase; Table 3): 90%

IC50 (ecNOS; Table 5, read-out: IC50 ecNOS): > 50 µM | IC50 (ncNOS; Table 5, read-out: IC50 ncNOS): ≤ 50 µM | IC50 (iNOS; Table 5, read-out: IC50 iNOS): ≤ 50 µM
Compound: CC(=O)NCC1CNC(=N)CC1C (mixture of isomers) [Table 5: CH, H, CH3, CH2NHAc, H, H, H, cis/trans-5-Acetamidomethyl-2-imino-4-methyl-piperidine, acetic acid salt]

IC50 (ecNOS; Table 5, read-out: IC50 ecNOS): ≤ 50 µM | IC50 (ncNOS; Table 5, read-out: IC50 ncNOS): ≤ 10 µM | IC50 (iNOS; Table 5, read-out: IC50 iNOS): ≤ 10 µM
Compound: NC1=NCCc2ccccc21 [Table 5: C, (CH)4, H, H, H, H]

IC50 (ecNOS; Table 5, read-out: IC50 ecNOS): ≤ 1 µM | IC50 (ncNOS; Table 5, read-out: IC50 ncNOS): ≤ 1 µM | IC50 (iNOS; Table 5, read-out: IC50 iNOS): ≤ 1 µM
Compound: CO[C@@H]1CNC(=N)C[C@@H]1C [Table 5: CH, H, (S)CH3, (S)OCH3, H, H, H, hydrochloride]

IC50 (ecNOS; Table 4, read-out: IC50 ecNOS): ≤ 10 µM | IC50 (ncNOS; Table 4, read-out: IC50 ncNOS): ≤ 10 µM | IC50 (iNOS; Table 4, read-out: IC50 iNOS): ≤ 50 µM
Compound: CCC1CCC(=N)N1 (centres unmarked) [Table 4: H, H, C2H5, H, H]

IC50 (ecNOS; Table 4, read-out: IC50 ecNOS): > 50 µM | IC50 (ncNOS; Table 4, read-out: IC50 ncNOS): > 50 µM | IC50 (iNOS; Table 4, read-out: IC50 iNOS): > 50 µM
Compound: CC(=O)OC[C@H]1CCC(=N)N1 [Table 4: H, H, (R)-CH2OAc, H, H, 2-Imino-5-(R)-acetyloxymethylpyrrolidine hydrochloride]

IC50 (ecNOS; Table 4, read-out: IC50 ecNOS): ≤ 50 µM | IC50 (ncNOS; Table 4, read-out: IC50 ncNOS): ≤ 10 µM | IC50 (iNOS; Table 4, read-out: IC50 iNOS): ≤ 1 µM
Compound: CCC1CN=C(N)C1 (centres unmarked) [Table 4: H, C2H5, H, H, H, 2-Imino-4-ethylpyrrolidine hydrochloride]

IC50 (ecNOS; Table 4, read-out: IC50 ecNOS): > 50 µM | IC50 (ncNOS; Table 4, read-out: IC50 ncNOS): < 10 µM | IC50 (iNOS; Table 4, read-out: IC50 iNOS): ≤ 10 µM
Compound: N=C(N)CCNC(=O)C1CCC(=N)N1 (centres unmarked)

IC50 (ecNOS; Table 4, read-out: IC50 ecNOS): > 50 µM | IC50 (ncNOS; Table 4, read-out: IC50 ncNOS): > 50 µM | IC50 (iNOS; Table 4, read-out: IC50 iNOS): ≤ 50 µM
Compound: CCCC1CN=C(N)C1 (centres unmarked) [Table 4: H, n-C3H7, H, H, H, 2-Imino-4-propylpyrrolidine hydrochloride]

IC50 (ecNOS; Table 5, read-out: IC50 ecNOS): ≤ 50 µM | IC50 (ncNOS; Table 5, read-out: IC50 ncNOS): ≤ 10 µM | IC50 (iNOS; Table 5, read-out: IC50 iNOS): ≤ 10 µM
Compound: CC1(C)CCC(=N)NC1 [Table 5: CH2, H, H, (CH3)2, H, H, H, 2-Imino-5,5-dimethylpiperidine hydrochloride]

Compound: N=C1CCCCN1 [drawing 16]
% inhibition (NO synthase; Table 3): 100%

IC50 (ecNOS): ≤ 1 µM | IC50 (ncNOS): ≤ 1 µM | IC50 (iNOS): ≤ 1 µM
Compound: C[C@@H]1CC(=N)N[C@H](C)C1 (relative stereo) [Table 5: CH, H, CH3, H, CH3, H, H, cis-4,6-Dimethyl-2-imino-piperidine, acetic acid salt]

IC50 (ecNOS; Table 4, read-out: IC50 ecNOS): ≤ 10 µM | IC50 (ncNOS; Table 4, read-out: IC50 ncNOS): ≤ 1 µM | IC50 (iNOS; Table 4, read-out: IC50 iNOS): ≤ 10 µM
Compound: CC1CN=C(N)C1C (centres unmarked) [Table 4: CH3, CH3, H, H, H, 2-Imino-3,4-dimethylpyrrolidine hydrochloride]

IC50 (ecNOS; Table 4, read-out: IC50 ecNOS): > 50 µM | IC50 (ncNOS; Table 4, read-out: IC50 ncNOS): ≤ 10 µM | IC50 (iNOS; Table 4, read-out: IC50 iNOS): ≤ 1 µM
Compound: CCC1CN=C(N)C1C (centres unmarked) [Table 4: CH3, C2H5, H, H, H, 2-Imino-4-ethyl-3-methylpyrrolidine hydrochloride]
